# Test results published in US10016519B2, “18F-tagged inhibitors of prostate specific membrane antigen (PSMA), their use as imaging agents and pharmaceutical agents for the treatment of prostate cancer” (DEUTSCHES KREBSFORSCHUNGSZENTRUM, priority 2014, dated 2018).
# Assays:
# [1] = system: mice bearing LNCaP tumor xenografts; assay: Dynamic microPET imaging; format: in vivo
# Description: FIG. 9: PET imaging of PSMA-1001. Whole-body coronal microPET images of an athymic male nude mice bearing LNCaP tumor xenografts. The tumor-targeting efficacy and pharmacokinetic properties of ^18F-PSMA-1001 were evaluated by dynamic microPET scans. Approximately 15 MBq/mouse were injected. […] The values are expressed as mean SUV (standardized uptake values).
# Whole-body coronal microPET images of an athymic male nude mice bearing LNCaP tumor xenografts. […] Approximately 15 MBq/mouse were injected. […] The values are expressed as mean SUV (standardized uptake values).
# (§1) For in vivo experiments, 8 week old BALB/c nu/nu mice were subcutaneously inoculated into the right trunk with 5×10^6 LNCaP- or PC3-cells in 50% Matrigel. When the size of tumor was approximately 1 cm^3, the radiolabeled compound was injected via the tail vein (ca. 30 MBq, 60 pmol for μPET imaging; ca. 1 MBq, 60 pmol for organ distribution).
# For the microPET studies, 10-25 MBq of the radiolabeled compounds in a volume of 0.15 mL (˜60 pmol) were injected via a lateral tail vein into mice bearing LNCaP tumor xenografts. The anesthetized animals (2% sevoflurane, Abbott, Wiesbaden, Germany) were placed in prone position into the Inveon small animal PET scanner (Siemens, Knoxville, Tenn., USA) to perform dynamic microPET scans and 20 min-static scans.
# PSMA = target: T1, PSMA (Homo sapiens, UniProt Q04609); assay: Competitive cell binding assay (binding affinity); conditions: LNCaP cells, competition against 68Ga-labeled [Glu-urea-lys(Ahx)]2-HBED-CC radioligand, 0-5000 nM analyte
# T1 construct: host or cells: LNCaP
# Description: (§2) For binding studies and in vivo experiments LNCaP cells (metastatic lesion of human prostatic adenocarcinoma, ATCC CRL-1740) were cultured in RPMI medium supplemented with 10% fetal calf serum and Glutamax (PAA, Austria). During cell culture, cells were grown at 37° C. in an incubator with humidified air, equilibrated with 5% CO2. The cells were harvested using trypsin-ethylenediaminetetraacetic acid (trypsin-EDTA; 0.25% trypsin, 0.02% EDTA, all from PAA, Austria) and washed with PBS.
# The competitive cell binding assay and internalization experiments were performed as described previously (Eder, M. et al., Bioconj. Chem 2012, 23, 688-697) Briefly, the respective cells (10^5 per well) were incubated with the radioligand (^68Ga-labeled [Glu-urea-lys(Ahx)]2-HBED-CC (Schafer, M. et al., EJNMMI Res. 2012; 2, 23) in the presence of 12 different concentrations of analyte (0-5000 nM, 100 μL/well). After incubation, washing was carried out using a multiscreen vacuum manifold (Millipore, Billerica, Mass.). Cell-bound radioactivity was measured using a gamma counter (Packard Cobra II, GMI, Minnesota, USA). The 50% inhibitory concentration (IC^50) was calculated by fitting the data using a nonlinear regression algorithm (GraphPad Software).
# Experiments were performed three times. Reference is made to Table A below.
# LNCaP cells = assay: Specific cell uptake and internalization; format: cell-based, human; conditions: for Internalized fraction: (Internalized activity/total activity)*100, LNCaP cells; for Cell surface / Internalised: LNCaP cells, 30 nM 18F-labeled compound, 45 min, 37° C., specific (blocking with 500 μM PMPA), mean±SD n=3
# Description: FIG. 8: Internalization of compounds PSMA1001/1002/1003. All compounds were labeled with ^18F, and their specific cell surface binding and internalization properties on LNCaP cells were investigated. Specific cell uptake was determined by blocking with 500 μM-PMPA. Values are expressed as % of applied radioactivity bound to 10^5 cells. Data are expressed as mean±SD (n=3).
# as §2
# To determine the specific cell uptake and internalization, 10^5 cells were seeded in poly-L-lysine coated 24-well cell culture plates 24 h before incubation. After washing, the cells were incubated with 30 nM of the radiolabeled compounds for 45 min at 37° C. Specific cellular uptake was determined by competitive blocking with 2-(phosphonomethyl)pentanedioic acid (500 μM final concentration, PMPA, Axxora, Loerrach, Germany). Cellular uptake was terminated by washing 3 times with 1 mL of ice-cold PBS. Cells were subsequently incubated twice with 0.5 mL glycine-HCl in PBS (50 mM, pH=2.8) for 5 min to remove the surface-bound fraction. The cells were washed with 1 mL of ice-cold PBS and lysed using 0.3 N NaOH (0.5 mL). The surface-bound and the internalized fractions were measured in a gamma counter. The cell uptake was calculated as percent of the initially added radioactivity bound to 10^5 cells [% ID/10^5 cells].
# [2] = system: BALB/c nu/nu mice bearing LNCaP tumor; assay: Organ distribution; format: in vivo; conditions: 1 h after injection, tail vein, 60 pmol, n=3
# Description: as §1
# The F-18 labeled compounds were injected via tail vein (1-2 MBq per mouse; 60 pmol). At 1 h after injection, the animals were sacrificed. Organs of interest were dissected, blotted dry, and weighed. The radioactivity was measured with a gamma counter (Packard Cobra II, GMI, Minnesota, USA) and calculated as % ID/g.
# T1 sequence (Q04609 whole entry): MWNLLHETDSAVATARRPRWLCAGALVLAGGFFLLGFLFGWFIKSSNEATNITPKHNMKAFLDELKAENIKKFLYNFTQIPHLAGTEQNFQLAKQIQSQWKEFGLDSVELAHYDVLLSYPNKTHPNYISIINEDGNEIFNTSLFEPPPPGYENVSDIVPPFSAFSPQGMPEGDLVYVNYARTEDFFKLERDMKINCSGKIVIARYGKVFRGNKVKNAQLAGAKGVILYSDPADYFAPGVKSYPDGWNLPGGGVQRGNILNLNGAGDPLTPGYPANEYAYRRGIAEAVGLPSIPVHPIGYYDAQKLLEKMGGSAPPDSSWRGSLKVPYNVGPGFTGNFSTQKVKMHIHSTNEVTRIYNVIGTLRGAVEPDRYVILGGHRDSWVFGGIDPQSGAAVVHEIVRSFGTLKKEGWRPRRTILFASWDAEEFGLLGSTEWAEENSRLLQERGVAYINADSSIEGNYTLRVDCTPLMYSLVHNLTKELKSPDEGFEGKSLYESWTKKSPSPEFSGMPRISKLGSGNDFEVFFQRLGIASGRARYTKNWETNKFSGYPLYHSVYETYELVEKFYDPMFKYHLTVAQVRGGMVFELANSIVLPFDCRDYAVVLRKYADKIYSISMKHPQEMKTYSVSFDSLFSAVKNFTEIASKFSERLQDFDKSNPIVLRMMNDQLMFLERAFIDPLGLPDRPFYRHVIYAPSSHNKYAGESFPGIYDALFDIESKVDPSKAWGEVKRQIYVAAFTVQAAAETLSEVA
Compound,"Tumor standardized uptake value (SUVmean,BW) ([1]; LNCaP tumor xenograft, time not stated)",Uptake in the kidneys (microPET) ([1]; LNCaP xenograft mice),Uptake in the liver (microPET) ([1]; LNCaP xenograft mice),IC50 (PSMA) [nM],Internalized fraction (LNCaP cells) [%],Cell surface (LNCaP cells) [% ID/10^5 cells],Internalised (LNCaP cells) [% ID/10^5 cells],"Organ distribution, Blood, Mean [2] [% ID/g]","Organ distribution, Brain, Mean [2] [% ID/g]","Organ distribution, Heart, Mean [2] [% ID/g]","Organ distribution, Kidney, Mean [2] [% ID/g]","Organ distribution, LNCaP Tumor, Mean [2] [% ID/g]","Organ distribution, Liver, Mean [2] [% ID/g]","Organ distribution, Lung, Mean [2] [% ID/g]","Organ distribution, Muscle, Mean [2] [% ID/g]","Organ distribution, Small intestine, Mean [2] [% ID/g]","Organ distribution, Spleen, Mean [2] [% ID/g]"
"O=C(O)CC[C@H](NC(=O)N[C@@H](CCCCNC(=O)[C@H](Cc1ccc2ccccc2c1)NC(=O)[C@H]1CC[C@H](CNC(=O)c2ccc([18F])nc2)CC1)C(=O)O)C(=O)O [PSMA-1001, (Glu)-(Urea)-((D)-Lys)-(2-Naphthylalanine)-(4-(Aminomethyl)cyclohexanecarboxylic acid)-FN]",0.5,increasing uptake in the kidneys,high uptake in the liver,3,26,8.4 ± 1.9,2.9 ± 0.3,,,,,,,,,,
"O=C(O)CC[C@H](NC(=O)N[C@@H](CCCCNC(=O)[C@H](Cc1ccc2ccccc2c1)NC(=O)c1ccc(CNC(=O)c2ccc([18F])nc2)cc1)C(=O)O)C(=O)O [PSMA-1003, (Glu)-(Urea)-((D)-Lys)-(2-Naphthylalanine)-(4-(Aminomethyl)benzoic acid)-FN]",,,,,,,,2.02,0.07,0.25,32.37,3.4,3.02,0.65,0.25,8.49,1.96
"O=C(O)CCC(NC(=O)NC(CCCCNC(=O)C(Cc1ccc2ccccc2c1)NC(=O)c1ccc(CNC(=O)CO/N=C\C([18F])C(O)C(O)C(O)CO)cc1)C(=O)O)C(=O)O (stereo not shown) [PSMA-1005, (Glu)-(Urea)-(Lys)-(2Nal)-(Bn)-(Acetyl-FDG-Oxim)]",,,,7,63,1.1 ± 0.5,0.7 ± 0.4,,,,,,,,,,
(Glu)-(Urea)-((D)-Lys)-(2-Naphthylalanine)-(4-(Aminomethyl)benzoic acid)-FN [PSMA-1003],,,,3,38,11.7 ± 1.2,7.1 ± 0.8,,,,,,,,,,
